Laboratory results from patent US20120283332A1 (OHIO UNIVERSITY, priority 2009, published 2012).

Legend:
[1] = system: DM2; settings: oral metformin
[2] = cited from earlier work
[3] = system: Type 2 diabetes; settings: human, in vivo
Source text: They had recently stopped all diabetic medications due to side effects. They wished to stay off insulin due to the risk of gaining weight.
Labs: Hgb A1C 11.2%, Total Cholesterol: 159, Triglycerides: 284, HDL: 32, LDL: 70
The patient was not on any diabetic medications due to intolerable gastrointestinal side effects. […] It was decided that an alternative drug delivery mechanism would be appropriate. […] The patient was educated on the usage of the gel, how to apply the gel and potential side effects. The patient was to contact the physician if any adverse effects occurred. […] The patient was to follow-up in one month.
The patient stated that there had been no lifestyle changes.
Lipids were collected with results of total cholesterol: 119, triglycerides: 209, HDL: 29, LDL: 48.
They were interested in trying a medication that will cover their through the evening to get their BS to 200 mg/dL in the morning. They were concerned with anything that will cause them to gain weight.

[4] = oral; cited from earlier work

CN(C)C(=N)N=C(N)N [metformin]
BS readings ([1]; before it was stopped): improved | side effects leading to stopping ([1]; stopped 3 months prior to visit): severe gastrointestinal side effects | patients experiencing a gastrointestinal side effect ([2]; oral metformin, anorexia, nausea, vomiting, abdominal discomfort, diarrhea): Up to 20% | patients discontinuing therapy due to side effects ([2]; oral metformin): up to 5% | patients developing vitamin B12 deficiency ([2]; patients taking metformin): 77% | tolerability of previously tried diabetic medications [3]: unable to tolerate | absorption time [4]: 6 h

CCc1ccc(CCOc2ccc(CC3SC(=O)NC3=O)cc2)nc1 (stereo not drawn) [pioglitazone]
tolerability of previously tried diabetic medications [3]: unable to tolerate

N[C@@H](CC(=O)N1CCn2c(nnc2C(F)(F)F)C1)Cc1cc(F)c(F)cc1F [sitagliptin]
tolerability of previously tried diabetic medications [3]: unable to tolerate
